≈ marks a conversion by molar mass, not a printed value. Calls of active or inactive are those of the source. The rule behind the calls is not given here.
Tests used:
Cryptococcus neoformans = assay: Antimicrobial activity against Cryptococcus neoformans ATCC 90113 by Alamar blue method; format: functional, organism-based
Staphylococcus aureus [1] = assay: Antimicrobial activity against Staphylococcus aureus ATCC 29213 by Alamar blue method; format: functional, organism-based; settings: Staphylococcus aureus, ATCC 29213; for IC50: read-out: IC50
Nakaseomyces glabratus [2] = assay: Ratio of fluconazole MFC to compound MFC for Candida glabrata by Alamar blue method; format: functional
Staphylococcus aureus [3] = assay: Antimicrobial activity against methicillin-resistant Staphylococcus aureus ATCC 33591 by Alamar blue method; format: functional, organism-based
Aspergillus fumigatus = assay: Antimicrobial activity against Aspergillus fumigatus ATCC 204305 by Alamar blue method; format: functional, organism-based
Candida albicans = assay: Antimicrobial activity against Candida albicans ATCC 90028 by Alamar blue method; format: functional, organism-based
[4] = tested on: Mycobacterium intracellulare; assay: Antimicrobial activity against Mycobacterium intracellulare ATCC 23068 by Alamar blue method; format: functional, organism-based
[5] = Selectivity index, ratio of TC50 for african green monkey Vero cells to IC50 for Cryptococcus neoformans ATCC 90113; format: toxicity, cell-based; settings: read-out: Selectivity Index
Pichia kudriavzevii [6] = assay: Ratio of fluconazole MFC to compound MFC for Candida krusei ATCC 6258 by Alamar blue method; format: functional
Nakaseomyces glabratus [7] = assay: Antimicrobial activity against Candida glabrata by Alamar blue method; format: functional, organism-based
Pichia kudriavzevii [8] = assay: Antimicrobial activity against Candida krusei ATCC 6258 by Alamar blue method; format: functional, organism-based
[9] = Cytotoxicity against african green monkey Vero cells after 48 hrs by Neutral Red dye assay; format: cell-based; settings: chlorocebus sabaeus, read-out: TC50
Nakaseomyces glabratus [10] = assay: Antimicrobial activity against Candida glabrata at 20 ug/ml by Alamar blue method; format: functional, organism-based
Vero = assay: Cytotoxicity against african green monkey Vero cells at 10 ug/ml after 48 hrs by Neutral Red dye assay; format: cell-based; settings: chlorocebus sabaeus
Saccharomyces cerevisiae = assay: Antimicrobial activity against Saccharomyces cerevisiae expressing rad52 mutant gene assessed as increase in sensitivity at 20 umol/L by spectrophotometry relative to wild type; format: functional

SMILES | MFC (Cryptococcus neoformans) [µg/mL] | MIC (Cryptococcus neoformans) [µg/mL] | MBC (Staphylococcus aureus [1]) [µg/mL] | MIC (Staphylococcus aureus [1]) [µg/mL] | IC50 (Staphylococcus aureus [1]) [µg/mL] | IC50 (Staphylococcus aureus [3]) [µg/mL] | MBC (Staphylococcus aureus [3]) [µg/mL] | MIC (Staphylococcus aureus [3]) [µg/mL] | IC50 (Aspergillus fumigatus) [µg/mL] | MFC (Aspergillus fumigatus) [µg/mL] | MIC (Aspergillus fumigatus) [µg/mL] | IC50 (Candida albicans) [µg/mL] | MFC (Candida albicans) | MIC (Candida albicans) | IC50 (Nakaseomyces glabratus [7]) [µg/mL] | MFC (Nakaseomyces glabratus [7]) | MIC (Nakaseomyces glabratus [7]) | IC50 (Pichia kudriavzevii [8]) [µg/mL] | MFC (Pichia kudriavzevii [8]) [µg/mL] | MIC (Pichia kudriavzevii [8]) [µg/mL] | also measured
[I-].c1ccc2cc(Sc3cc4ccccc4[n+](CCCCCC4CCCCC4)c3)ccc2c1 | 0.16 | 0.16 | 2.5 | 0.63 | 0.34 | 0.35 | 2.5 | 0.63 | 1.2 | 2.5 | 2.5 | 0.42 | 2.5 µg/mL | 1.3 µg/mL | 0.87 | 2.5 µg/mL | 2.5 µg/mL | 0.09 | 0.63 | 0.63 | IC50 (Cryptococcus neoformans): 0.09 µg/mL; Ratio (Nakaseomyces glabratus [2]): 79; IC50 [4]: 4.2 µg/mL; MBC [4]: 10 µg/mL; MIC [4]: 5 µg/mL; selectivity ratio [5]: > 111; Ratio (Pichia kudriavzevii [6]): 79
Cc1cccc(CSc2cc3ccccc3[n+](CCCCCC3CCCCC3)c2)c1.[I-] | 0.63 | 0.63 | 2.5 | 1.3 | 0.64 | 0.72 | 2.5 | 1.3 | 5.8 | 10 | 10 | 2 | 5 µg/mL | 5 µg/mL | 3.3 | 10 µg/mL | 5 µg/mL | 0.67 | 2.5 | 2.5 | IC50 [4]: 7.2 µg/mL; MBC [4]: 10 µg/mL; MIC [4]: 10 µg/mL; CC50 at 48 h [9]: 5 µg/mL
OC(Cn1cncn1)(Cn1cncn1)c1ccc(F)cc1F [FLUCONAZOLE] | 13 (≈ 42.4 µM) | 6.3 (≈ 20.6 µM) |  |  |  |  |  |  |  |  |  | 0.12 (≈ 0.392 µM) | inactive | inactive | 27 (≈ 88.2 µM) | inactive | inactive | 27 (≈ 88.2 µM) | 50 (≈ 163 µM) | 50 (≈ 163 µM) | IC50 (Cryptococcus neoformans): 0.21 µg/mL (≈ 0.686 µM); Activity (Nakaseomyces glabratus [10]): inactive; Activity (Vero): Non-toxic
COc1cccc2c1C(=O)c1c(O)c3c(c(O)c1C2=O)C[C@@](O)(C(=O)CO)C[C@@H]3O[C@H]1C[C@H](N)[C@H](O)[C@H](C)O1 [DOXORUBICIN] |  |  |  |  |  |  |  |  |  |  |  |  |  |  |  |  |  |  |  |  | fold change (FC) (Saccharomyces cerevisiae): >100
FC(F)(F)c1ccc(CSc2cc3ccccc3[n+](CCCCCC3CCCCC3)c2)cc1.[I-] | 0.31 | 0.31 | 1.3 | 0.63 | 0.28 | 0.36 | 1.3 | 0.63 | 2.9 | 5 | 5 | 1.4 | 2.5 µg/mL | 2.5 µg/mL | 2.7 | 5 µg/mL | 5 µg/mL | 0.46 | 1.3 | 1.3 | IC50 [4]: 4.7 µg/mL; MBC [4]: 10 µg/mL; MIC [4]: 10 µg/mL; CC50 at 48 h [9]: 7.9 µg/mL

— ChEMBL document CHEMBL3085759, “Structure-activity relationship (SAR) and preliminary mode of action studies of 3-substituted benzylthioquinolinium iodide as anti-opportunistic infection agents” (Eur J Med Chem, 2013)
